What was measured:
[1] = tested on: 24-hydroxylase gene reporter plasmid in rat osteosarcoma cells; assay: 24-hydroxylase (24-OHase) transcription, luciferase reporter; settings: for EC50: Rattus norvegicus, read-out: 24OHase transcription ED50; for 24OHase transcription Ratio: average ratio of the 1α,25-(OH)2D3 ED50 to the ED50 for the analogue
Description: (§1) The experiments were carried out in duplicate on two different occasions. […] The binding ratio is the average ratio of the 1□,25-(OH)2D3 Ki to the Ki for the analogue. ^bInduction of differentiation of HL-60 promyelocytes to monocytes by 1□,25-(OH)2D3 (1) and the synthesized vitamin D analogues. Differentiation state was determined by measuring the percentage of cells reducing nitro blue tetrazolium (NBT). The experiment was repeated in duplicate two times. […] The differentiation activity ratio is the average ratio of the 1□,25-(OH)2D3 ED50 to the ED50 for the analogue. ^cTranscriptional assay in rat osteosarcoma cells stably transfected with a 24-hydroxylase gene reporter plasmid. […] The luciferase activity ratio is the average ratio of the 1□,25-(OH)2D3 ED50 to the ED50 for the analogue.

[2] = target: T1, full-length recombinant rat vitamin D receptor (Rattus norvegicus, UniProt P13053); assay: Competitive VDR binding; settings: for VDR binding ratio: average ratio of the 1α,25-(OH)2D3 Ki to the Ki for the analogue
T1 sequence (P13053 1-423): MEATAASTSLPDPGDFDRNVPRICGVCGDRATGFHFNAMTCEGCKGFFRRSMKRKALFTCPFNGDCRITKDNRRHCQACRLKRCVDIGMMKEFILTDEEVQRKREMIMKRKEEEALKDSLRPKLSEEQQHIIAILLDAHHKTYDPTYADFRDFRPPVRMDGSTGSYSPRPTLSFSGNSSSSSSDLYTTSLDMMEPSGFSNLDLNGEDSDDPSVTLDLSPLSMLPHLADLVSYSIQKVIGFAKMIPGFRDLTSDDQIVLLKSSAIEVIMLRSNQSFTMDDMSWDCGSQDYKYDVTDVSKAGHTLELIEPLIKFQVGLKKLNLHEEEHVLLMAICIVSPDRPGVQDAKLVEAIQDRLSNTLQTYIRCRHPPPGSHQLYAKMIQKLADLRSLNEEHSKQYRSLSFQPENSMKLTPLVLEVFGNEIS
Description: as §1

HL-60 promyelocytes = assay: HL-60 differentiation (NBT reduction); settings: for HL-60 differentiation ratio: average ratio of the 1α,25-(OH)2D3 ED50 to the ED50 for the analogue; for HL-60 differentiation activity, in words: compared with 1α,25-(OH)2D3
Description: as §1

[3] = background statement in the discussion, compared with 1,25-(OH)2D3; cited from earlier work
[4] = background statement in the discussion; cited from earlier work
[5] = Bone calcium mobilization in vivo (serum calcium); design: species or system Sprague-Dawley rats; settings: rats on 0.02% Ca diet, four consecutive intraperitoneal doses, serum calcium 24 hours after the last dose
Excerpt: 2. In vivo Studies. Bone calcium mobilization and intestinal calcium transport.
Male, weanling Sprague-Dawley rats were purchased from Harlan (Indianapolis, Ind.). The animals were group housed and placed on Diet 11 (0.47% Ca)+AEK oil for one week followed by Diet 11 (0.02% Ca)+AEK oil for 3 weeks. The rats were then switched to a diet containing 0.47% Ca^26 for one week followed by two weeks on a diet containing 0.02% Ca. Dose administration began during the last week on 0.02% Ca diet. Four consecutive intraperitoneal doses were given approximately 24 hours apart. Twenty-four hours after the last dose, blood was collected from the severed neck and the concentration of serum calcium determined as a measure of bone calcium mobilization. The first 10 cm of the intestine was also collected for the intestinal calcium transport analysis using the everted gut sac method.^25

Row | Structure (SMILES) | EC50 [1] [nM] | Ki [2] [nM] | VDR binding ratio [2] | HL-60 differentiation ratio (HL-60 promyelocytes) | 24OHase transcription Ratio [1] | intestinal calcium absorption of 2MD, in words [3] | bone calcium mobilizing activity of 2MD, in words [4] | melting point [°C] | bone calcium mobilization activity, in words [5] | HL-60 differentiation activity, in words (HL-60 promyelocytes) | bone calcium mobilization activity, in words ([5]; listed as 24,24-difluoro substituted 19-nor-20S-2-methylene-1α,25-(OH)2D3) | 24-OHase (CYP24A1) transcriptional activity, in words ([1]; compared with 1α,25-(OH)2D3 or 2MD) | VDR binding, in words ([2]; compared with 1α,25-(OH)2D3)
1 | C=C1/C(=C\C=C2/CCC[C@@]3(C)C2CCC3[C@H](C)CCCC(C)(C)O)C[C@@H](O)C[C@@H]1O (stereo partly drawn) [Compound 1, 1α,25-dihydroxyvitamin D3, reference compound] | 0.2 |  |  |  |  |  |  |  |  |  |  |  | 
2 | C=C1[C@H](O)CC(=C/C=C2\CCC[C@@]3(C)C2CCC3[C@@H](C)CCCC(C)(C)O)C[C@H]1O (stereo partly drawn) [Compound 2, 2-methylene-(20S)-1α,25-dihydroxy-19-nor vitamin D3, reference compound] | 0.007 | 0.03 | 1.3 | 150 | 29 | not increased above that found with 1,25-(OH)2D3 | greatly increased bone calcium mobilizing activity |  |  |  |  |  | 
3 | C=C1[C@H](O)CC(=C/C=C2\CCC[C@@]3(C)C2CCC3[C@H](C)CCC(F)(F)C(C)(C)O)C[C@H]1O (stereo partly drawn) [Compound 3, (20R)-1α,25-Dihydroxy-24,24-difluoro-2-methylene-19-norvitamin D3] | 0.01 | 0.04 | 1 | 30 | 20 |  |  | 163 to 164 | not as potent in vivo as analogues 4 and 6 | high potency |  |  | 
4 | C=C1[C@H](O)CC(=C/C=C2\CCC[C@@]3(C)C2CCC3[C@@H](C)CCC(F)(F)C(C)(C)O)C[C@H]1O (stereo partly drawn) [Compound 4, (20S)-1α,25-Dihydroxy-24,24-difluoro-2-methylene-19-norvitamin D3] | 0.02 | 0.03 | 1.3 | 100 | 10 |  |  |  | highest bone mobilization activity |  | bone calcium mobilization activity rivaling 2-methylene-19-nor-(20S)-1,25-dihydroxyvitamin D3 or 2MD | almost as active as 2MD | 
5 | C[C@H](CCC(F)(F)C(C)(C)O)C1CCC2/C(=C/C=C3C[C@@H](O)C[C@H](O)C3)CCC[C@@]21C (stereo partly drawn) [Compound 5, (20R)-1α,25-Dihydroxy-24,24-difluoro-19-norvitamin D3] | 0.04 | 0.02 | 2 | 60 | 5 |  |  | 182 to 183 | not as potent in vivo as analogues 4 and 6 | high potency |  |  | slightly more effective than 1α,25-(OH)2D3
6 | C[C@@H](CCC(F)(F)C(C)(C)O)C1CCC2/C(=C/C=C3C[C@@H](O)C[C@H](O)C3)CCC[C@@]21C (stereo partly drawn) [Compound 6, (20S)-1α,25-Dihydroxy-24,24-difluoro-19-norvitamin D3] | 0.04 | 0.03 | 1.3 | 50 | 5 |  |  |  | highest bone mobilization activity |  |  |  | 
